According to the CheMixHub ionic liquid set:
Where “and” joins values, the source holds several entries; their conditions need not be identical. Equal entries are not always repeated.

Assay: xn = mol fraction of the nth substance listed

NCCCNCCCN + CC(=O)[O-].CCCC[n+]1ccn(C)c1 + O
viscosity [mPa·s], 101 kPa
Conditions	298.15 K	303.15 K	308.15 K	313.15 K	318.15 K	323.15 K	328.15 K	333.15 K
x2 = 0.03479, x1 = 0.0177	3.36	3.32	3.14	2.86	2.61	2.28	1.96	1.77
x2 = 0.03897, x1 = 0.01333	3.54	3.51	3.28	2.95	2.66	2.52	2.34	2.15
x2 = 0.04311, x1 = 0.00893	3.88	3.76	3.32	2.96	2.74	2.62	2.37	2.24

c1ccncc1 + CCCC[n+]1ccn(C)c1.F[B-](F)(F)F
298.15 K, 101 kPa
Conditions	electrical conductivity [S/m]	viscosity [mPa·s]
x1 = 0.1059	0.264	82
x1 = 0.2	0.347	58
x1 = 0.3028	0.456	39.2
x1 = 0.3969	0.601	26.4
x1 = 0.5033	0.792	16.4
x1 = 0.6063	1.01	9.9
x1 = 0.6873	1.17	6.39
x1 = 0.807	1.3	3.2

CCOCC[n+]1ccn(C)c1.C[C@@H](O)[C@H](N)C(=O)[O-] + O
100 kPa
Conditions	viscosity
298.15 K, x1 = 0.619	1040 mPa·s
313.15 K, x1 = 0.3647	245 mPa·s
323.15 K, x1 = 0.3158	118.5 mPa·s
323.15 K, x1 = 0.3647	125.5 mPa·s
328.15 K, x1 = 0.3158	96.1 mPa·s and 99.5 mPa·s
328.15 K, x1 = 0.5081	106 mPa·s
328.15 K, x1 = 1	115.4 mPa·s

CCCCn1cc[n+](CCOCCOCCOCCOCC[n+]2ccn(CCCC)c2)c1.N#C[N-]C#N.N#C[N-]C#N + CC[n+]1ccn(C)c1.N#C[N-]C#N + O=S(=O)([N-]S(=O)(=O)C(F)(F)F)C(F)(F)F.[Li+]
100 kPa, x1 = 0.2104, x2 = 0.6943
Conditions	electrical conductivity [S/m]
298 K	0.471
303 K	0.549
313 K	0.79
323 K	1.05
333 K	1.37
343 K	1.67

CCCCCC[n+]1ccn(C)c1.F[B-](F)(F)F + O
Conditions	viscosity [mPa·s]
298.15 K, 100 kPa, x1 = 0.0153	2.79

C[S+](C)C.O=S(=O)([N-]S(=O)(=O)C(F)(F)F)C(F)(F)F + CC1COC(=O)O1
101 kPa
Conditions	electrical conductivity [S/m]
283.15 K, x2 = 0.76	0.862
298.15 K, x1 = 0.0005	0.035
298.15 K, x1 = 0.0008	0.044
298.15 K, x2 = 0.6202	1.29
333.15 K, x2 = 0.76	2.54

CCCCCC[n+]1ccn(C)c1.F[B-](F)(F)F + CC(C)O
101 kPa
Conditions	viscosity [mPa·s]
293.15 K, x2 = 0.9165	3.61
303.15 K, x2 = 0.1493	68.1
303.15 K, x2 = 0.3752	26.9
303.15 K, x2 = 0.5845	11.6
303.15 K, x2 = 0.7067	7.02
303.15 K, x2 = 0.762	5.47
313.15 K, x2 = 0.2992	24.9
313.15 K, x2 = 0.762	3.99
323.15 K, x2 = 0	50.3
323.15 K, x2 = 0.2289	21.4
323.15 K, x2 = 0.2992	18.8
333.15 K, x2 = 0	34
333.15 K, x2 = 0.1493	20.7
333.15 K, x2 = 0.3752	10.33
333.15 K, x2 = 0.762	2.35

CC[n+]1ccn(C)c1.O=C([O-])C(F)(F)F + OCCN(CCO)CCO
100 kPa
Conditions	electrical conductivity, 298.15 K [S/m]	electrical conductivity, 313.15 K [S/m]	viscosity, 293.15 K [mPa·s]	viscosity, 298.15 K [mPa·s]	viscosity, 303.15 K [mPa·s]	viscosity, 313.15 K [mPa·s]
x1 = 0.006	0.00085	0.0024	878	581	395	197.6
x1 = 0.007	0.00084	0.00237	871	576	392	196.1
x2 = 0.393	0.423	0.76	76.3	60	47.9	32
x2 = 0.501	0.287	0.54	98.1	75.4	59	38.1
x2 = 0.6	0.182	0.37	135.1	101	77	47.7
x2 = 0.692	0.109	0.237	190.6	139	103.5	61.2
x2 = 0.778	0.061	0.143	279.5	198.3	143.8	81.2
x2 = 0.857	0.0281	0.07	413	284.7	201.3	108.7
x2 = 0.931	0.0095	0.0268	621	419	289.4	149.9
x2 = 0.966	0.00397	0.0113	751	501	344	174.6
x2 = 0.98	0.0025	0.007	775	518	354	179.3

CCCC[N+](C)(C)C.O=S(=O)([N-]S(=O)(=O)C(F)(F)F)C(F)(F)F + CC(O)C(C)O
Conditions	viscosity [mPa·s]
328.15 K, 101 kPa, x2 = 0	30

CCCCCC[n+]1ccn(C)c1.F[B-](F)(F)F + CC[n+]1ccn(C)c1.F[B-](F)(F)F
101 kPa
Conditions	viscosity [mPa·s]
298.15 K, x2 = 0	211
298.15 K, x2 = 0.4061	111.8
298.15 K, x2 = 0.793	53.76
299.15 K, x2 = 0	198.1
299.15 K, x2 = 0.1196	162.2
299.15 K, x2 = 0.1803	148.6
299.15 K, x2 = 0.3145	121.9
299.15 K, x2 = 0.4938	91.2
299.15 K, x2 = 0.6006	74.7
299.15 K, x2 = 0.793	51.53
299.15 K, x2 = 0.9022	41.62
301.15 K, x2 = 0.0545	155.3
301.15 K, x2 = 0.1803	132.9
301.15 K, x2 = 0.8516	42.79
301.15 K, x2 = 0.9022	38.54
302.15 K, x2 = 0	167.2
302.15 K, x2 = 0.1196	137.4
302.15 K, x2 = 0.8516	41.13
302.15 K, x2 = 0.9022	37.08
303.15 K, x2 = 0.5526	68.4
303.15 K, x2 = 0.6006	62.29
303.15 K, x2 = 0.7059	51.99
303.15 K, x2 = 0.793	43.73
304.15 K, x2 = 0.7059	49.86
304.15 K, x2 = 0.9022	34.46
305.15 K, x2 = 0.3145	89.6
305.15 K, x2 = 0.4938	68.4
305.15 K, x2 = 0.6006	57.12
305.15 K, x2 = 0.793	40.44
305.15 K, x2 = 0.9022	33.23
307.15 K, x2 = 0.793	37.44
307.15 K, x2 = 0.9022	30.96
308.15 K, x2 = 0.3145	77.6
308.15 K, x2 = 0.4938	59.86
308.15 K, x2 = 0.6006	50.38
308.15 K, x2 = 0.793	36.05
308.15 K, x2 = 0.9022	29.94

CCCC[N+](C)(C)C.O=S(=O)([N-]S(=O)(=O)C(F)(F)F)C(F)(F)F + O=S(=O)([N-]S(=O)(=O)C(F)(F)F)C(F)(F)F.[Li+] + O
viscosity [mPa·s], 100 kPa
Conditions	293.15 K	298.15 K	303.15 K	313.15 K	323.15 K	333.15 K	343.15 K	353.15 K	363.15 K
x2 = 0.2745, x1 = 0.2745	100	78	59	38.1	26.5	19	14.2	10.9	8.61
x2 = 0.3106, x1 = 0.2745	150	115	88.9	53.9	35.5	24.7	18.1	13.7	10.6
x2 = 0.3509, x1 = 0.2745	264	192	145	87.4	51	34.7	24.6	18.2	13.9
x2 = 0.3868, x1 = 0.2745	341	245	182	106	65.4	43.1	30.1	21.3	16.5
x2 = 0.4308, x1 = 0.2745	494	401	289	162	99	58.8	40.6	28.8	21.2

CC(=O)[O-].CCCC[N+](CCCC)(CCCC)CCCC + CCCOCC(C)O
electrical conductivity [S/m], 101 kPa
Conditions	x1 = 0.006949	x1 = 0.008744	x1 = 0.02598	x1 = 0.03298	x1 = 0.06584	x1 = 0.09163	x1 = 0.1232	x1 = 0.1599	x1 = 0.2312
248.15 K	0.000652	0.000811	0.00218	0.00267	0.00439	0.00514	0.00547	0.00531	0.0042
258.15 K	0.00115	0.00143	0.00399	0.00493	0.00847	0.01022	0.01125	0.01128	0.00942
268.15 K	0.00182	0.00229	0.00661	0.00825	0.01473	0.01821	0.02062	0.02133	0.01883
278.15 K	0.00269	0.0034	0.01016	0.01277	0.02353	0.02971	0.03448	0.03666	0.03401
288.15 K	0.00374	0.00478	0.01461	0.01849	0.03502	0.04505	0.05341	0.05816	0.05632
298.15 K	0.00498	0.00635	0.01995	0.02547	0.04947	0.06468	0.07808	0.08671	0.08711
308.15 K	0.00637	0.00816	0.02625	0.03367	0.06676	0.08851	0.1086	0.1227	0.1274
313.15 K	0.0071	0.00913	0.02965	0.03815	0.07641	0.1011	0.126	0.1436	0.1513
